Experimental data taken from a melting point compilation (Tetko et al.; mined from patent text by program, amines drawn as free bases though some values may be those of a salt).

Row | melting point [°C] | SMILES
1 | 135 to 138 | Cc1ccc(CNC(=O)c2ccnc(NC(=O)c3ccccc3)c2)cc1
2 | 169 to 173 | CC(C)(C)Nc1nc(C#N)c(C#N)nc1Cl
3 | > 160 | CC(C)n1nc2c(F)cccc2c1-c1ccc(O)cc1O
4 | 38 to 42 | COc1cccc(CN2CCCCc3cc(CN(O)C(N)=O)ccc32)c1
5 | 127 to 129 | CCCCOc1ccc(C=CC(=O)NCCN(O)C(N)=O)cc1
6 | 56 to 58 | COC1OC(CO)C(O)C(OC)C1O (stereo not given)
7 | 124 to 126 | COc1ccc(CC(CSC(C)=O)C(=O)Nc2cccc(C(=O)O)c2)cc1 (stereo not given)
8 | 220 | O=C(O)c1ccc2c(c1)Sc1ccccc1S2
9 | 185 to 186 | CC(C)Sc1cccc(-c2nc(=O)c3ccccc3s2)n1
10 | 130 | O=C(NO)[C@H](CNS(=O)(=O)c1ccc(OCc2cc(Cl)cc(Cl)c2)cc1)N1CCCCC1
11 | 47 to 53 | COc1ccc(OC(CCCN(C)C2C3CCC2CNC3)c2ccc(C#N)cc2)cc1OC (stereo not given)
12 | 123 to 124 | COC(=O)c1c(N)cc(Cl)c(Cl)c1Cl
13 | 56 to 58 | CC(Oc1cc(Cl)ccc1Cl)C(=O)OCc1ccccc1 (stereo not given)
14 | 132 to 133 | CC/C=C(\C)CNc1cccc(-c2ccnc3c(C(=O)c4cccs4)cnn23)c1
15 | 158 to 159 | N#CCCNC(=O)c1cccc(-c2ccc(F)c3cc(Cc4cccc(C(F)(F)F)c4)oc23)c1
16 | 252 to 256 | COC(=O)/C=C/n1cnc2ccc(O)cc2c1=O
17 | 117 to 118 | C=C1CCN(c2cn(-c3cccnc3)nc2Cl)C1=O
18 | 92 to 94 | COC(=O)[C@H](c1ccccc1Cl)N1CCc2sc(OC(=O)c3cccnc3)cc2C1
19 | 279 | COc1cccc(CNC(=O)c2nc3scc(CC(=O)Nc4ccc(C(=O)O)cc4)c3c(=O)[nH]2)c1
20 | 152 to 154 | Cc1ccc(-c2ccc(S(N)(=O)=O)cc2)n1-c1ccc(Cl)cc1
21 | 95 to 110 | CC(C)(C)OC(=O)CN1C(=O)C(NC(=O)Nc2cccc(Cl)c2)CC(c2ccccc2)CC1Cc1ccccc1 (stereo not given)
22 | 241 to 243 | CC(=O)N1CCC(F)(Cc2c3c(nn2C)c(N)nc2ccccc23)CC1

The remaining lines, values behind:

Row | SMILES | melting point [°C]
23 | Nc1cc(Cl)c(Cc2ccc(C(=O)c3cnc(Cl)c(Cl)c3)cc2)c(Cl)c1 | 140 to 145
24 | CN(C)c1ccc(NC(=O)NC2CCC2)c(C(=O)NCC2CCN(C(c3ccccc3)c3ccccc3)CC2)c1 | 210 to 212
25 | CC1(C)CC(OC(=O)Nc2ccccc2)CC(C)(C)N1OC(=O)Nc1ccccc1 | 188 to 190
26 | Cc1cc(N2CCOCC2)nc(N)c1N | 97 to 108
27 | CCCCCCCCOc1ccc(-c2cnc(C(=O)O)c(C(=O)O)n2)cc1 | 163
28 | CCCCC(Oc1c(Br)cc(-c2ccc(-c3c(Cc4ccccc4)oc4ccccc34)cc2)cc1Br)C(=O)O (stereo not given) | 75 to 76
29 | CCCCC1C(=O)N(C(=O)NCCc2ccc(S(=O)(=O)NC(=O)NC3CCC(C)CC3)cc2)CCC1C (stereo not given) | 131 to 133
30 | Cc1csc2c1S(=O)(=O)N=C(NC(C)C)N2 | 152 to 154
31 | CC(CCCC(C)(C)C)C1CCC2C3C(=O)C=C4CC(O)CCC4(C)C3CCC12C (stereo not given) | 176 to 178
32 | O=C(CN1CCNCCNCCNCC1)Nc1c(I)cc(I)c(C(=O)O)c1I | 245 to 246
33 | Fc1cc2c(c(-c3c(Cl)cccc3Cl)c1)OC(CNC1CCC1)C2 (stereo not given) | 128 to 130
34 | CCN(CC)CCC(=O)NC1c2ccccc2-c2[nH]c(=O)c3nccn3c21 (stereo not given) | 260
35 | O=CC1=C(Cl)Nc2cc(Cl)c(F)cc2C1 | 260
36 | COC(=O)C(=O)c1c(F)c(F)c(OCCOc2ccc3ccccc3c2)c(F)c1F | 69 to 71
37 | CCC=C1SC(=S)N(CC(=O)O)C1=O | 138 to 140
38 | CCNC(=O)c1c(Cl)cccc1[Si](C)(C)CBr | 98 to 99
39 | CC1CCc2c(O)ccc3c(=O)c(C(=O)O)cn1c23 (stereo not given) | > 300
40 | Clc1ccc(-c2ccc(-c3ccccc3)s2)s1 | 128 to 132
41 | CCN1C(=O)C(C)(C)C(=O)N(C)c2cc(CN(CCn3ccc4occc4c3=O)Cc3cccnc3COC)ccc21 | 123 to 125
42 | CC(C)c1cc(-c2ccccc2)nc(-c2ccc(F)cc2)c1CO | 172 to 174
43 | COc1ccc(C(=O)c2ccc(Cl)nc2)c(OCc2ccccc2)c1 | 93 to 94
44 | NCCOc1cccc2c1ccn2S(=O)(=O)c1ccccc1 | 71 to 73
45 | Cc1csc(C(O)(c2nccs2)C(F)(F)F)n1 (stereo not given) | 89 to 90
46 | CCOP(=O)(Cc1cc(C)cc(C)n1)OCC | 109 to 112

Row | SMILES | melting point [°C]
47 | CC1C(=O)N(Oc2ccc(F)cc2F)Cc2ccc(NC3CCOCC3)nc21 (stereo not given) | 238 to 239
48 | O=C(OCC=C(c1ccccc1)[N+](=O)[O-])C(F)(F)C(F)(F)C(F)(F)C(F)(F)C(F)(F)C(F)(F)C(F)(F)F | 79 to 81
49 | COC(=O)c1cc(C(=O)OC)c(Br)cn1 | 102 to 104
50 | N#Cc1ccc(Cn2cncn2)cc1-c1ccc(OS(N)(=O)=O)c(Cl)c1 | 133 to 136
51 | O=Cc1ccc(I)nc1 | 141
52 | CC(=Cc1ccc(Oc2ccc(C)nc2)cc1)C(=O)O | 211 to 214
53 | NCCCP(=O)(O)c1ccccc1 | 298 to 300
54 | N#Cc1ccc(-c2ccc(OC(F)(F)F)c(CNC3CCN(C(=O)CO)CC3c3ccccc3)c2)c(F)c1 (stereo not given) | 132 to 134
55 | CCCc1ncc(C(=O)OCC)c(NCc2ccc(-c3ccccc3-c3nnn[nH]3)cc2)n1 | 146 to 147
56 | COc1cc(-n2cccn2)ncn1 | 108 to 109
57 | Cc1cccc(NC(=O)NCC(=O)N2[C@@H](C(=O)OC(C)(C)C)C[C@H](CO)[C@H]2c2ccccc2)c1 (racemic) | 168
58 | NS(=O)(=O)c1ccc(-c2noc(-c3cnn4c(C(F)F)cc(-c5ccc(C(F)(F)F)cc5)nc34)n2)s1 | 278
59 | O=c1[nH]c2ccc(N3CCOCC3)cc2c(=O)o1 | 235
60 | Cc1cccc(-c2n[nH]cc2-c2ccc(F)c(-c3c[nH]c(CCO)n3)c2)n1 | 219 to 220
61 | CCCCC(Cc1ccc(OCCNC(=O)c2ccc(-c3cccc(C(=O)O)c3)cc2)cc1)C(=O)O (stereo not given) | 142 to 143
62 | Oc1ccc2c(c1)CCCC(c1ccccc1)=C2c1ccc(OCCCCCSCCCC(F)(F)C(F)(F)F)cc1 | 167 to 168
63 | CCOC(=O)c1cn(C)c2cnc3cc(F)c(N4CCC[C@H]4CNc4ccccc4)cc3c2c1=O | 170
64 | CCc1n[nH]c(CC)c1Oc1cc(Cl)cc(Cl)c1 | 114 to 115
65 | CC(C)Cc1ccc2c(c1O)C(=O)c1c(ccc(CC(C)C)c1O)C2=O | 138 to 140
66 | COc1ccccc1S(=O)(=O)c1c(NS(=O)(=O)c2ccc(C(C)(C)C)cc2)ncnc1OCCOc1ncc(Br)cn1 | 208
67 | Cc1nc(NC(=O)c2ccccc2S(C)(=O)=O)sc1C(=O)NCc1ccccc1 | 239 to 242
68 | CCC(COC)(OC)c1cc(F)cc(OCc2ccccc2)c1 (stereo not given) | 61 to 62
69 | CC(C)C1NC(=S)N(c2ccc(N(C)C)c3ccccc23)C1=O (stereo not given) | 108 to 110
70 | Cc1ccc(S(=O)(=O)CCOc2ccccc2OCCS(=O)(=O)c2ccc(C)cc2)cc1 | 95 to 96
